Measurements reported in PMC12621183 (Journal of Medicinal Chemistry, 2025).
Entries after “also recorded” stand apart in the source; their conditions may differ. Read-outs that look alike come from different tables or passages of the source. One block for each molecule: values may come before it.

Experiments:
K562 wild-type cells [1] = test: cells; format: cell-based; settings: for apoptosis induction: K562 cells, 72-h exposure; for CC50: K562 wild-type, 72 h, Annexin V/7-AAD, read-out: LC50 (the source's name)
Protocol: (§1) K562 wild-type, K562/DOX, OCI-AML3, HaCaT and healthy B cell cytotoxicity screening. Healthy B-lymphocytes were obtained from healthy donor blood samples using density gradient centrifugation with Histopaque.
(§2) All cells were maintained at 37 °C in atmospheric conditions of 5% CO2. Cytotoxicity screening was carried out in triplicate with these cells at a cell density of 0.5 × 10^6 cells/mL. Cells were treated with test compounds at a range of concentrations to establish LC50 values. Cells were incubated with the compounds for 72 h before being harvested by centrifugation. Subsequently, cells were labeled with Annexin V and 7-AAD (bioscience) in accordance with the manufacturer’s instructions. Following staining with FITC-labeled annexin V and 7-AAD, samples were analyzed using CytExpert software on a CytoFLEX LX flow cytometer (Beckman Coulter) to determine relative levels of cell death in the sample. Prism 10 software was then used to analyze the data to obtain dose–response curves.

K562/DOX cells [2] = test: cells; format: cell-based
Protocol: as §1, §2

recombinant ABL1 kinase = recombinant ABL1 kinase (Homo sapiens, UniProt P00519); test: ABL1 kinase assay (ADP-Glo); format: biochemical
Protocol: Kinase inhibition was assessed using luminescent ADP-Glo–based assays. […] No-enzyme and no-compound reactions served as 0% and 100% activity controls, respectively. Luminescence was quantified using a Tecan Spark plate reader, and kinase activity or inhibition was calculated relative to controls.

K562/DOX cells [3] = test: Effect of P-gp activity on apoptosis using verapamil (K562/DOX); format: cell-based, human; settings: for Fold change in LC50 (+/- verapamil): efflux factor; for effect of P-gp inhibition by verapamil on cytotoxicity: with and without verapamil
Protocol: Cells were seeded onto 96-well plates at a concentration of 0.5 × 10^6 cells/well in a final volume of 200 μL. […] After a 72-h incubation period with the test compounds, both with and without the inhibitor, apoptotic cells were evaluated using the Annexin V assay to determine the extent of apoptosis.

PDGFRα (D842Y) = biological target: T1, PDGFRα (D842Y) (Homo sapiens, UniProt P16234, D842Y); test: PDGFRα (D842Y) Chemi-Verse kinase assay; format: biochemical; settings: compared with imatinib
T1 construct: purchased Cambridge Biosciences (Chemi-Verse kinase assays)
Protocol: (§3) Reactions were set up under the supplier’s recommended conditions, with recombinant kinases (5 ng/μL final), peptide substrates, and ATP in kinase assay buffer. Test inhibitors or vehicle were added, and reactions were incubated at 30 °C for 45 min. ADP formation was quantified with ADP-Glo detection, and percent inhibition was determined relative to DMSO controls.

CSF-1R = biological target: T2, CSF-1R (Homo sapiens, UniProt P07333); test: CSF-1R Chemi-Verse kinase assay; format: biochemical; settings: compared with imatinib
T2 construct: purchased Cambridge Biosciences (Chemi-Verse kinase assays)
Protocol: as §3

K562 wild-type cells [4] = test: LC-MS/MS accumulation assay in K562 wild-type cells; format: in vitro ADME, human; settings: 50 μM drug, 2 h
Protocol: K562 wild-type and K562/DOX cells were seeded in 6-well plates at a density of 1 × 10^6 cells per well in a final volume of 2 mL and cultured for 24 h at 37 °C in a humidified incubator with 5% CO2. The cells were then treated with 50 μM of the drug and incubated for 2 h. After incubation, the cells were harvested, washed with ice-cold phosphate-buffered saline (PBS), and pelleted. Intracellular drug was extracted by lysing the cells with 400 μL of methanol, aided by sonication. The lysates were centrifuged at 7200 rcf, and the supernatant was collected for analysis by LC-MS/MS. Drug quantification was performed using an external calibration method. Stock solutions of each compound were prepared in methanol and used to generate calibration standards in methanol/DMSO (70:30, %v/v). Experimental samples were diluted in the same solvent mixture prior to analysis. […]
The UHPLC system was coupled to a Shimadzu 8060 triple quadrupole mass spectrometer with an electrospray ionization (ESI) source operating in positive ion mode. […] Multiple reaction monitoring (MRM) transitions (Table S2) were used for quantification with a dwell time of 100 ms per transition. […] Statistical significance of differences in intracellular accumulation between drugs and cell lines was assessed using the nonparametric Mann–Whitney test (n = 6).

[5] = LC-MS/MS accumulation assay in P-gp-overexpressing K562/DOX cells; format: in vitro ADME, human; settings: human; K562 wild-type vs K562/DOX
Protocol: (§4) K562 wild-type and K562/DOX cells were seeded in 6-well plates at a density of 1 × 10^6 cells per well in a final volume of 2 mL and cultured for 24 h at 37 °C in a humidified incubator with 5% CO2. The cells were then treated with 50 μM of the drug and incubated for 2 h. After incubation, the cells were harvested, washed with ice-cold phosphate-buffered saline (PBS), and pelleted. Intracellular drug was extracted by lysing the cells with 400 μL of methanol, aided by sonication. The lysates were centrifuged at 7200 rcf, and the supernatant was collected for analysis by LC-MS/MS. Drug quantification was performed using an external calibration method. Stock solutions of each compound were prepared in methanol and used to generate calibration standards in methanol/DMSO (70:30, %v/v). Experimental samples were diluted in the same solvent mixture prior to analysis.
(§5) Chromatographic separation was performed on a Shimadzu Nexera XR ultrahigh-performance liquid chromatography (UHPLC) system comprising two LC-20AD pumps, a DGC degasser, a SIL-30AC autosampler, a CBM-20A controller, and a column oven. The system was fitted with an Ascentis Express C18 column (5 cm × 2.1 mm, 2.7 μm particle size). Elution was performed with a binary solvent system: eluent A, 0.1% formic acid in water; eluent B, 0.1% formic acid in methanol. The gradient program was as follows: 5% B for 0.5 min, increased to 40% B over 3.5 min, increased to 95% B over 2 min, held at 95% B for 1.5 min, then returned to 5% B at 8 min and held for 3 min for re-equilibration. The mobile phase flow rate was 0.21 mL/min. The column oven was maintained at 40 °C and the autosampler at 10 °C.
(§6) The UHPLC system was coupled to a Shimadzu 8060 triple quadrupole mass spectrometer with an electrospray ionization (ESI) source operating in positive ion mode. […] Multiple reaction monitoring (MRM) transitions (Table S2) were used for quantification with a dwell time of 100 ms per transition. Data were normalized against standards prepared using the initial drug concentration in the lysis solution. Statistical significance of differences in intracellular accumulation between drugs and cell lines was assessed using the nonparametric Mann–Whitney test (n = 6).

K562/DOX cells [6] = test: as above; format: in vitro ADME, human; settings: for increase in intracellular concentration: K562/DOX relative to K562 wild-type; for intracellular accumulation (concentration): K562/DOX, 50 μM drug, 2 h; for higher intracellular concentration relative to imatinib: within K562/DOX cells
Protocol: as §4, §5, §6

HaCaT cells = format: cell-based; settings: ratio of IC50 in HaCaT cells to LC50 in K562 wild-type
Protocol: HaCaT cells were seeded in a 96-well plate in DMEM at a density of 3 × 10^3 cells/well and incubated for 24 h at 37 °C in a humidified incubator with 5% CO2. The cells were then treated with a series of drug concentrations (0.1–100 μM) and incubated for a further 72 h at 37 °C. After treatment, the media in each well, including control wells, was replaced with MTT reagent (0.1 mg/well in media) and incubated for 4 h at 37 °C. Following incubation, the MTT reagent was carefully removed, and 200 μL of DMSO was added to each well to solubilize the formazan crystals. The plate was shaken for 10 min, and the optical density (OD) was measured at 570 nm using a microplate reader.

healthy B-lymphocytes = test: Cytotoxicity in healthy B-lymphocytes (Annexin V/7-AAD); format: cell-based; settings: concentrations up to 100 μM
Protocol: K562 wild-type, K562/DOX, OCI-AML3, HaCaT and healthy B cell cytotoxicity screening. Healthy B-lymphocytes were obtained from healthy donor blood samples using density gradient centrifugation with Histopaque. Informed consent was obtained from all human participants in this study and experiments were performed in accordance with ethical approval granted by the local research ethics committee (17/SW/0263). […]
All cells were maintained at 37 °C in atmospheric conditions of 5% CO2. […] Following staining with FITC-labeled annexin V and 7-AAD, samples were analyzed using CytExpert software on a CytoFLEX LX flow cytometer (Beckman Coulter) to determine relative levels of cell death in the sample. […]

[7] = Homo sapiens, K562, 72 h, read-out: LC50, K562/DOX, 72 h, Annexin V/7-AAD

Chain of recombinant ABL1 kinase (P00519 whole entry): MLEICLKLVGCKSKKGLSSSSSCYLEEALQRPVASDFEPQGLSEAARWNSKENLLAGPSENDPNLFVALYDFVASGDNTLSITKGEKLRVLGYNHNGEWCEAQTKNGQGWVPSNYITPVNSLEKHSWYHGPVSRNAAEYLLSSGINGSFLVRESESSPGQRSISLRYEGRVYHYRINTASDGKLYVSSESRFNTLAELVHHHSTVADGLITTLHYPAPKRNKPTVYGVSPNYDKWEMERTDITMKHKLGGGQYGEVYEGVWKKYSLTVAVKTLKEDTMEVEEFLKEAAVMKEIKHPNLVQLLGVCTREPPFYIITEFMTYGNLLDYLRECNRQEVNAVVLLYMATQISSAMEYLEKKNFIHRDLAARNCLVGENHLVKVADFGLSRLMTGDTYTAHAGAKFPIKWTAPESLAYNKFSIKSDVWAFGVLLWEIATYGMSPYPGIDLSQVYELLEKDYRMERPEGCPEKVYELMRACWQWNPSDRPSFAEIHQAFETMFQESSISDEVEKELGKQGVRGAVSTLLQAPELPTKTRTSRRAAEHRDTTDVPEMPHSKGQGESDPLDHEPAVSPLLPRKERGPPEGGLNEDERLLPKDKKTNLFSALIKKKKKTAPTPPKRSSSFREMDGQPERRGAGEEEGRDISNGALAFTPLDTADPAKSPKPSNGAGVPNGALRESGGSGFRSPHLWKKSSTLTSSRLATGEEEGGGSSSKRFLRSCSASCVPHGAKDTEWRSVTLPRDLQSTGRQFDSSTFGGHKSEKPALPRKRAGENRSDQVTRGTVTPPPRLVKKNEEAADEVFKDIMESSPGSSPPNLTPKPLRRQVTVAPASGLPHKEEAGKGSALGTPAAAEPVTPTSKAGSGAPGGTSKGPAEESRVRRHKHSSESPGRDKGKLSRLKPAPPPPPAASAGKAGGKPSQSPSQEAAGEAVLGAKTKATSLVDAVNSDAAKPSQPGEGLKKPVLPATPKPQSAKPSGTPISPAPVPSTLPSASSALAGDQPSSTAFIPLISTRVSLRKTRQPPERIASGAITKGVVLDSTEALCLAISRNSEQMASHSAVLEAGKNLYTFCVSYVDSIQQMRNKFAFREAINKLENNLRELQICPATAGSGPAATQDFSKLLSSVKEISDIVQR
T1 sequence (P16234 24-1089 D842Y): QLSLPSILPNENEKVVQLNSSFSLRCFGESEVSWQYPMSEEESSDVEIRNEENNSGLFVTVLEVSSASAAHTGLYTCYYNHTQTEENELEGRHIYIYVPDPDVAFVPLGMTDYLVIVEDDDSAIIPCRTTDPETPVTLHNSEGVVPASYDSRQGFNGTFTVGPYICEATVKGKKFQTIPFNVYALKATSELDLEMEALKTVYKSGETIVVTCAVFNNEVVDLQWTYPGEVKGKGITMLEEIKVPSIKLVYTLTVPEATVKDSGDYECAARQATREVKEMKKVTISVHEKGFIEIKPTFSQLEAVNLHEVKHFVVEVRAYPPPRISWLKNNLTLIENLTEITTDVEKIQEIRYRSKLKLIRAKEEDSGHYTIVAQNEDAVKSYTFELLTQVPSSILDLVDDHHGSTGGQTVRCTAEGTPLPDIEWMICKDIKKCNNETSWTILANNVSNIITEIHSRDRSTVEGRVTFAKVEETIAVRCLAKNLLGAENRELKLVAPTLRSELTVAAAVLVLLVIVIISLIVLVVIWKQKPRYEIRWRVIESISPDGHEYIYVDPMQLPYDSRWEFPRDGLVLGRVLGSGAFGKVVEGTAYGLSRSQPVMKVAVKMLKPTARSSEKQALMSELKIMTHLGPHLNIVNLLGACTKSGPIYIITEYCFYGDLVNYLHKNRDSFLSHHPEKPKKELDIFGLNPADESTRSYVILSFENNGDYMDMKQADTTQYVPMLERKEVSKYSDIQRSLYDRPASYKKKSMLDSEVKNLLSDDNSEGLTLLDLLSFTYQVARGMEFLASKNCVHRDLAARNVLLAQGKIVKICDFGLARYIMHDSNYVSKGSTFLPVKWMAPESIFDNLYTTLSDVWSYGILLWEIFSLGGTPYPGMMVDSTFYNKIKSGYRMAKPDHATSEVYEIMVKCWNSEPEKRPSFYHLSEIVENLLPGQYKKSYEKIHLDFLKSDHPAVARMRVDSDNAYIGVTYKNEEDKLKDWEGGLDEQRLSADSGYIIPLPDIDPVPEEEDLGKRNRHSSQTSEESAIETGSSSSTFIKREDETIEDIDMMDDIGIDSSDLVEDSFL
T2 sequence (P07333 20-972): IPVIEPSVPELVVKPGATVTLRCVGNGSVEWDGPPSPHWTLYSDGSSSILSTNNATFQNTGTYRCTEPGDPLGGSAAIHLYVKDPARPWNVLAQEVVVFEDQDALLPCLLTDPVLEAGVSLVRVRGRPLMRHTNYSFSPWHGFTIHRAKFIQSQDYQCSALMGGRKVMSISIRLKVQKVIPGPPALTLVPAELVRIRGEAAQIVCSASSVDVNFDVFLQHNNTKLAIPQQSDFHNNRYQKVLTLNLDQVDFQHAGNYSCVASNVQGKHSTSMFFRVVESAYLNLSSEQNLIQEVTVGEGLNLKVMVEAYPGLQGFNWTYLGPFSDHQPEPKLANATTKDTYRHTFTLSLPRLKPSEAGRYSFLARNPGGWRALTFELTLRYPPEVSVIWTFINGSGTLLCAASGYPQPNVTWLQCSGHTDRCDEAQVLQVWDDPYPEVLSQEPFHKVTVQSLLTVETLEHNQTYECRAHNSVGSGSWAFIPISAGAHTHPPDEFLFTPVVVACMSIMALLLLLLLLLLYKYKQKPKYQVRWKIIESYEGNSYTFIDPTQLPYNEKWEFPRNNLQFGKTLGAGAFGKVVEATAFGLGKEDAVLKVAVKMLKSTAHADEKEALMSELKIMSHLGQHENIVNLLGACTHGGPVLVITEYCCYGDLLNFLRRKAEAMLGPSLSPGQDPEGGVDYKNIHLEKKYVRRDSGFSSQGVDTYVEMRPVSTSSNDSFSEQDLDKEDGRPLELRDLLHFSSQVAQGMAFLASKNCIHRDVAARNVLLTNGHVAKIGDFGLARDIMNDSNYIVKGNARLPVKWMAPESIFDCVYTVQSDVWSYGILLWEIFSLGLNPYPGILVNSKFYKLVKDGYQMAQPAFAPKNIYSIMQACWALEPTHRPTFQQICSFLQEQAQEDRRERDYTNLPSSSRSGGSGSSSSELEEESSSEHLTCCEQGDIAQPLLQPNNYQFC

Molecule: 4-Methyl-3-((4-(pyridin-3-yl)pyrimidin-2-yl)amino)phenyl-4-((4-(pyrimidin-2-yl)piperidin-1-yl)methyl)benzamide [Compound 11]
apoptosis induction (K562 wild-type cells [1]): induced apoptosis in a dose-dependent manner | CC50 (K562 wild-type cells [1]): 24.2 ± 12.2 µM | CC50 (K562/DOX cells [2]; K562/DOX, 72 h, Annexin V/7-AAD, read-out: LC50 (the source's name)): > 50 µM | %Kinase inhibition (recombinant ABL1 kinase; 10 μM, 40 min incubation): 26.55%

Molecule: Cc1ccc(NC(=O)c2ccc(CN3CCC(c4ccccc4)CC3)cc2)cc1Nc1nccc(-c2cccnc2)n1 [Compound 7]
CC50 (K562 wild-type cells [1]; Homo sapiens, K562, 72 h): > 50 µM | apoptosis induction (K562 wild-type cells [1]): inactive | CC50 (K562/DOX cells [2]; [7]): > 50 µM | inhibition at 10 µM (recombinant ABL1 kinase; 10 μM, 40 min incubation): 37.7%

Molecule: Cc1ccc(NC(=O)c2ccc(CN3CCC(c4ccccn4)CC3)cc2)cc1Nc1nccc(-c2cccnc2)n1 [Compound 9]
CC50 (K562 wild-type cells [1]; Homo sapiens, K562, 72 h): 21.8 ± 11 µM | apoptosis induction (K562 wild-type cells [1]): induced apoptosis in a dose-dependent manner | CC50 (K562 wild-type cells [1]): 21.8 µM | CC50 (K562/DOX cells [2]; [7]): 20.3 ± 10.3 µM | CC50 (K562/DOX cells [2]; human, 72 h): 20.3 µM | Fold change in LC50 (+/- verapamil) (K562/DOX cells [3]): 4.1 | effect of P-gp inhibition by verapamil on cytotoxicity (K562/DOX cells [3]): reversal of resistance was not significant | ABL1 inhibition (recombinant ABL1 kinase): relatively weak inhibition | inhibition at 10 µM (recombinant ABL1 kinase; 10 μM, 40 min incubation): 32.2% | inhibitory activity against PDGFRα (D842Y) (PDGFRα (D842Y)): broadly comparable to imatinib | inhibitory activity against CSF-1R (CSF-1R): broadly comparable to imatinib | intracellular accumulation (concentration) (K562 wild-type cells [4]): 23.36 µg/mL | efflux ratio at 2 h, 50 μM [5]: 0.87 | increase in intracellular concentration (K562/DOX cells [6]): 14.4% | intracellular accumulation (concentration) (K562/DOX cells [6]): 26.73 µg/mL | higher intracellular concentration relative to imatinib (K562/DOX cells [6]): ~4.8 fold

Molecule: Cc1ccc(NC(=O)c2ccc(CN3CCC(n4cccc4)CC3)cc2)cc1Nc1nccc(-c2cccnc2)n1 [Compound 12, 4-((4-(1H-Pyrrol-1-yl)piperidin-1-yl)methyl)-N-(4-methyl-3-((4-(pyridin-3-yl)pyrimidin-2-yl)amino)phenyl)benzamide]
CC50 (K562 wild-type cells [1]; Homo sapiens, K562, 72 h): > 50 µM | apoptosis induction (K562 wild-type cells [1]): inactive | inhibition at 10 µM (recombinant ABL1 kinase; 10 μM, 40 min incubation): 47.4%

Molecule: Cc1ccc(NC(=O)c2ccc(CN3CCC(n4cnnc4)CC3)cc2)cc1Nc1nccc(-c2cccnc2)n1 [Compound 14, 4-((4-(4H-1,2,4-Triazol-4-yl)piperidin-1-yl)methyl)-N-(4-methyl-3-((4-(pyridin-3-yl)pyrimidin-2-yl)amino)phenyl)benzamide]
CC50 (K562 wild-type cells [1]; Homo sapiens, K562, 72 h): > 50 µM | apoptosis induction (K562 wild-type cells [1]): inactive | CC50 (K562/DOX cells [2]; [7]): > 50 µM | inhibition at 10 µM (recombinant ABL1 kinase; 10 μM, 40 min incubation): 36.1%

Second part, led by results:

ABL1 inhibition (recombinant ABL1 kinase): moderate inhibition | inhibition at 10 µM (recombinant ABL1 kinase; 10 μM, 40 min incubation): 40% | inhibitory activity against PDGFRα (D842Y) (PDGFRα (D842Y)): broadly comparable to imatinib | inhibitory activity against CSF-1R (CSF-1R): broadly comparable to imatinib | intracellular accumulation (concentration) (K562 wild-type cells [4]): 14.14 µg/mL | efflux ratio at 2 h, 50 μM [5]: 0.98 | increase in intracellular concentration (K562/DOX cells [6]): 2.5% | intracellular accumulation (concentration) (K562/DOX cells [6]): 14.49 µg/mL | higher intracellular concentration relative to imatinib (K562/DOX cells [6]): approximately 2.6 fold
Molecule: Cc1ccc(NC(=O)c2ccc(CN3CCC(c4ccc(N)cc4)CC3)cc2)cc1Nc1nccc(-c2cccnc2)n1 [Compound 8, 4-((4-(4-Aminophenyl)piperidin-1-yl)methyl)-N-(4-methyl-3-((4-(23yridine-3-yl)pyrimidin-2-yl)amino)phenyl)benzamide]
CC50 (K562 wild-type cells [1]; Homo sapiens, K562, 72 h): 2.29 µM | apoptosis induction (K562 wild-type cells [1]): induced apoptosis in a dose-dependent manner | CC50 (K562/DOX cells [2]; [7]): 5.29 µM | Fold change in LC50 (+/- verapamil) (K562/DOX cells [3]): 1.3 | effect of P-gp inhibition by verapamil on cytotoxicity (K562/DOX cells [3]): minimal changes; also recorded: reversal of resistance was not significant | Toxicity Index (IC50 HaCaT/LC50 K562) (HaCaT cells): 3.4 | toxicity in nonmalignant B-lymphocytes (healthy B-lymphocytes): No significant toxicity; also recorded: no significant cytotoxicity

inhibition at 10 µM (recombinant ABL1 kinase; 10 μM, 40 min incubation): 39.6%
Molecule: Cc1ccc(NC(=O)c2ccc(CN3CCC(c4ccncc4)CC3)cc2)cc1Nc1nccc(-c2cccnc2)n1 [Compound 10, 4-Methyl-3-((4-(pyridin-3-yl)pyrimidin-2-yl)amino)phenyl-4-((4-(pyridin-4-yl)piperidin-1-yl)methyl)benzamide]
CC50 (K562 wild-type cells [1]; Homo sapiens, K562, 72 h): > 50 µM | apoptosis induction (K562 wild-type cells [1]): inactive | CC50 (K562/DOX cells [2]; [7]): 37.5 ± 10.1 µM | CC50 (K562/DOX cells [2]; human, 72 h): 37.5 µM

inhibition at 10 µM (recombinant ABL1 kinase; 10 μM, 40 min incubation): 47.1%
Molecule: Cc1ccc(NC(=O)c2ccc(CN3CCC(n4ccnc4)CC3)cc2)cc1Nc1nccc(-c2cccnc2)n1 [Compound 13, 4-((4-(1H-Imidazol-1-yl)piperidin-1-yl)methyl)-N-(4-methyl-3-((4-(pyridin-3-yl)pyrimidin-2-yl)amino)phenyl)benzamide]
CC50 (K562 wild-type cells [1]; Homo sapiens, K562, 72 h): 18.2 ± 1.9 µM | apoptosis induction (K562 wild-type cells [1]): induced apoptosis in a dose-dependent manner | CC50 (K562/DOX cells [2]; [7]): 32.5 ± 14.5 µM | Fold change in LC50 (+/- verapamil) (K562/DOX cells [3]): 1.9 | effect of P-gp inhibition by verapamil on cytotoxicity (K562/DOX cells [3]): minimal changes; also recorded: reversal of resistance was not significant
